Key:
Assay in all cases: relative viability (nuclei count vs DMSO), 5 days (fraction); higher = more cells survive
Everolimus + Bortezomib = compound: CO[C@H]1C[C@@H]2CC[C@@H](C)[C@@](O)(O2)C(=O)C(=O)N2CCCC[C@H]2C(=O)O[C@H]([C@H](C)C[C@@H]2CC[C@@H](OCCO)[C@H](OC)C2)CC(=O)[C@H](C)/C=C(\C)[C@@H](O)[C@@H](OC)C(=O)[C@H](C)C[C@H](C)/C=C/C=C/C=C/1C [Everolimus] + CC(C)C[C@H](NC(=O)[C@H](Cc1ccccc1)NC(=O)c1cnccn1)B(O)O [Bortezomib] (partner 0.002 µM)
In short: (§1)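 Relative viability is defined as nuclei in treated wells over nuclei in vehicle wells. Duplicate plates were run and medians reported. Lung cancer cell lines in 1536-well plates were dosed by pin tool one day after seeding, with one drug or with a fixed anchor-drug dose plus five library-drug doses (not always all listed) in √10 steps, and nuclei were counted after 5 days.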

Everolimus + Tozasertib = compound: CO[C@H]1C[C@@H]2CC[C@@H](C)[C@@](O)(O2)C(=O)C(=O)N2CCCC[C@H]2C(=O)O[C@H]([C@H](C)C[C@@H]2CC[C@@H](OCCO)[C@H](OC)C2)CC(=O)[C@H](C)/C=C(\C)[C@@H](O)[C@@H](OC)C(=O)[C@H](C)C[C@H](C)/C=C/C=C/C=C/1C [Everolimus] + Cc1cc(Nc2cc(N3CCN(C)CC3)nc(Sc3ccc(NC(=O)C4CC4)cc3)n2)n[nH]1 [Tozasertib] (partner 0.1 µM)
In short: as §1

Everolimus + AZD7762 = compound: CO[C@H]1C[C@@H]2CC[C@@H](C)[C@@](O)(O2)C(=O)C(=O)N2CCCC[C@H]2C(=O)O[C@H]([C@H](C)C[C@@H]2CC[C@@H](OCCO)[C@H](OC)C2)CC(=O)[C@H](C)/C=C(\C)[C@@H](O)[C@@H](OC)C(=O)[C@H](C)C[C@H](C)/C=C/C=C/C=C/1C [Everolimus] + NC(=O)Nc1cc(-c2cccc(F)c2)sc1C(=O)N[C@H]1CCCNC1 [AZD7762] (partner 0.2 µM)
In short: as §1

Everolimus + Decitabine = compound: CO[C@H]1C[C@@H]2CC[C@@H](C)[C@@](O)(O2)C(=O)C(=O)N2CCCC[C@H]2C(=O)O[C@H]([C@H](C)C[C@@H]2CC[C@@H](OCCO)[C@H](OC)C2)CC(=O)[C@H](C)/C=C(\C)[C@@H](O)[C@@H](OC)C(=O)[C@H](C)C[C@H](C)/C=C/C=C/C=C/1C [Everolimus] + Nc1ncn([C@H]2C[C@H](O)[C@@H](CO)O2)c(=O)n1 [Decitabine] (partner 2 µM)
In short: as §1

| Cell Line | relative viability (Everolimus + Bortezomib; first compound 0.01 µM) | relative viability (Everolimus + Bortezomib; first compound 0.03162 µM) | relative viability (Everolimus + Bortezomib; first compound 0.1 µM) | relative viability (Everolimus + Bortezomib; first compound 0.3162 µM) | relative viability (Everolimus + Bortezomib; first compound 1 µM) | relative viability (Everolimus + Tozasertib; first compound 0.01 µM) | relative viability (Everolimus + Tozasertib; first compound 0.03162 µM) | relative viability (Everolimus + Tozasertib; first compound 0.1 µM) | relative viability (Everolimus + Tozasertib; first compound 0.3162 µM) | relative viability (Everolimus + Tozasertib; first compound 1 µM) | relative viability (Everolimus + AZD7762; first compound 0.01 µM) | relative viability (Everolimus + AZD7762; first compound 0.03162 µM) | relative viability (Everolimus + AZD7762; first compound 0.1 µM) | relative viability (Everolimus + AZD7762; first compound 0.3162 µM) | relative viability (Everolimus + AZD7762; first compound 1 µM) | relative viability (Everolimus + Decitabine; first compound 0.01 µM) | relative viability (Everolimus + Decitabine; first compound 0.03162 µM) | relative viability (Everolimus + Decitabine; first compound 0.1 µM) | relative viability (Everolimus + Decitabine; first compound 0.3162 µM) | relative viability (Everolimus + Decitabine; first compound 1 µM) |
| --- | --- | --- | --- | --- | --- | --- | --- | --- | --- | --- | --- | --- | --- | --- | --- | --- | --- | --- | --- | --- |
| 201T | 1.01 | 1.01 | 0.956 | 0.927 | 0.953 | 0.898 | 0.913 | 0.801 | 0.843 | 0.906 | 0.466 | 0.476 | 0.407 | 0.421 | 0.47 | 0.758 | 0.757 | 0.635 | 0.705 | 0.716 |
| NCI-H1915 | 0.917 | 0.864 | 0.977 | 0.79 | 0.882 | 0.514 | 0.46 | 0.42 | 0.432 | 0.418 | 0.632 | 0.567 | 0.561 | 0.587 | 0.554 | 0.25 | 0.234 | 0.238 | 0.273 | 0.263 |
| NCI-H2009 | 0.739 | 0.863 | 0.484 | 0.864 | 0.812 | 0.576 | 0.65 | 0.545 | 0.612 | 0.491 |  |  |  |  |  | 0.295 | 0.313 | 0.382 | 0.288 | 0.377 |
| BEN | 0.326 | 0.367 | 0.299 | 0.333 | 0.328 | 0.462 | 0.452 | 0.491 | 0.415 | 0.354 | 0.377 | 0.394 | 0.417 | 0.41 | 0.444 | 0.574 | 0.412 | 0.546 | 0.442 | 0.583 |
| SK-MES-1 |  |  |  |  |  | 0.791 | 0.807 | 0.794 | 0.779 | 0.662 |  |  |  |  |  | 0.346 | 0.362 | 0.335 | 0.345 | 0.501 |
| LK-2 |  |  |  |  |  | 0.165 |  | 0.179 | 0.17 | 0.17 | 0.213 | 0.197 | 0.173 | 0.186 | 0.208 | 0.268 | 0.156 | 0.19 | 0.194 | 0.193 |
| NCI-H661 | 0.592 | 0.572 | 0.518 | 0.421 | 0.386 | 0.363 | 0.368 | 0.391 | 0.359 | 0.376 |  |  |  |  |  | 0.429 | 0.429 | 0.428 | 0.435 | 0.397 |
| NCI-H1648 |  |  |  |  |  | 0.41 | 0.776 | 0.585 | 0.549 | 0.388 | 0.622 | 0.634 | 0.631 | 0.735 | 1.02 | 0.484 | 0.423 | 0.383 | 0.405 | 0.399 |
| NCI-H1703 | 0.183 | 0.178 | 0.212 | 0.213 | 0.186 |  |  |  |  |  |  |  |  | 0.132 | 0.121 |  |  |  |  |  |
| NCI-H1944 |  |  |  |  |  | 0.215 | 0.236 | 0.205 | 0.224 | 0.185 | 0.341 | 0.437 | 0.354 | 0.325 | 0.306 | 0.409 | 0.409 | 0.386 | 0.396 | 0.355 |
